Assays:
[1] = molecular target: T1, OR2AT4 (Homo sapiens, UniProt A6NND4); assay: CRE-luciferase reporter activity assay in 293 cells stably expressing OR2AT4; type: cell-based; design: GeneScript (pcDNA3.1-Hygro for GNAL); details: synthetic odorants 400 µM, 4 hours, clone 293-OR2AT4-Golf-clone#2
T1 sequence (A6NND4 1-320): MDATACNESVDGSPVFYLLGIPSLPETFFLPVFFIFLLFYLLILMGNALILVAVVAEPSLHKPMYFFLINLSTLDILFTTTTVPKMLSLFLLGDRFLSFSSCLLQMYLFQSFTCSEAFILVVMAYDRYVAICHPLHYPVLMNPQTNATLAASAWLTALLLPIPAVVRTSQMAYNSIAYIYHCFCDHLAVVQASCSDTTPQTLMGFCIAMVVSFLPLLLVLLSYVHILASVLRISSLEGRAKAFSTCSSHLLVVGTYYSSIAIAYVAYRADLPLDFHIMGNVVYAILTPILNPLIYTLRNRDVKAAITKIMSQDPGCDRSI
Text: • Figure 1. Generation of a 293 clone that stably expresses the OR2AT4 receptor. The 293-OR2AT4-Golf transfectant was generated by means of calcium phosphate cotransfection into 293 cells of the expression plasmids for the OR2AT4 receptor (NM_001005285, pCMV6-Entry-OR2AT4-Neo; Origene) and for the Golf subunit of G proteins, generated by means of subcloning the hGNAL gene (NM_001261443.1) into the expression plasmid (pcDNA3.1-Hygro, GeneScript). Stable transfectants were selected on medium containing neomycin and hygromycin B, and clone 293-OR2AT4-Golf-clone#2 was obtained by limiting dilution. […] Replicates of the reactions for the target and housekeeping genes, which were performed simultaneously for each template cDNA analysed, were included in triplicate. […] Data normalisation was calculated by means of the formula [Luc/Renilla(N)-Luc/Renilla(lowest)]/[Luc/Renilla(highest)-Luc/Renilla(lowest)]. […] Means were calculated using three replicates per condition, n=3. […] Statistical significance was determined using Student's t test (*p<0.05 and **p<0.001, with respect to control). […] The anti proliferative effect of the aptamers on the K562 cell line was evaluated in a colorimetric proliferation assay based on the reduction of tetrazolium salts (XTT). […]

[2] = molecular target: T1, OR2AT4; design: host or cells: keratinocytes; details: cited from earlier work
[3] = test system: HaCaT-OR2AT4-Myc-DDK transfectants; assay: XTT cell proliferation assay in HaCaT-OR2AT4-Myc-DDK transfectants; type: cell-based, human; details: 250 µM, days 1, 3 and 5, compared to vehicle (Control)
[4] = test system: telogen effluvium; details: solution containing 1% Sandalore applied for 24 weeks, 60 patients with telogen effluvium; cited from earlier work
[5] = test system: human hair follicles; details: ex vivo; cited from earlier work

Row | Compound | cAMP production (normalised luciferase activity) [1] | activation of the OR2AT4 receptor expressed in keratinocytes [2] | cell proliferation [3] | degree of hair loss, hair volume, terminal/vellous hair ratio, anagen/catagen-telogen ratio, patient's self-esteem [4] | apoptosis [5] | hair growth [5] | production of the growth factor IGF-1 [5]
1 | CC1=CCC(CCC(C)CO)C1(C)C (stereo not shown) [Brahmanol, sandal cyclopentane] | activated cAMP production | capable of activating the OR2AT4 receptor | significant proliferative response | – | – | – | –
2 | CC1=CCC(CCC(C)C(C)O)C1(C)C (stereo not shown) [Sandalore, sandal pentanol] | activated cAMP production | capable of activating the OR2AT4 receptor | significant proliferative response | improvement | reducing apoptosis | promotes hair growth | increasing the production

Reference: EP4656722A1, “OR2AT4 RECEPTOR AGONIST APTAMERS AND USES THEREOF” (Fundacion Instituto De Investigacion Sanitaria Fundacion …, priority 2024, dated 2025)
